Data on 26 compounds can be found in ChEMBL document CHEMBL6121000, “Corosolic acid and its derivatives targeting MCCC1 against insulin resistance and their hypoglycemic effect on type 2 diabetic mice” (Eur J Med Chem, 2025).

SMILES strings stand for the structures. Active and inactive are the calls of the source. The rule behind the calls is not given here. A value given as a limit tells only on which side of the number the result lay.

Data set [1] deals with HepG2. In words: Inhibition of insulin resistance in human HepG2 cells assessed as decrease in GlcN-induced glucose production at 20 uM preincubated for 1 hr followed by GlcN treatment for 18 hrs and subsequent insulin stimulation for 20 mins. The data set is classed as functional, cell-based. To be noted: time 19.33 hrs.
The nature of data set [2]: (§1) Cytotoxicity against human HepG2 cells assessed as cell viability at 80 uM incubated for 24 hrs by CCK8 assay relative to control. The data set is classed as toxicity, cell-based. To be noted: HepG2 cells, read-out: Activity.
Data set [3] concerns HepG2. In words: Lipid lowering activity in human HepG2 cells assessed as inhibition of FFA-induced triglyceride content at 20 uM preincubated for 1 hr followed by FFA treatment for 24 hrs relative to control. The data set is classed as functional.
Data set [4] deals with HepG2. The data set is described as §1. Format: toxicity, cell-based. To be noted: hepg2, 24 h, 80 µM.
Another data set concerns Mus musculus. In words: Hypoglycemic activity in HFD-fed STZ-induced diabetic C57BL/6J mouse model assessed as improvement in weight loss at 200 mg/kg, po administered everyday for 3 weeks. Format: functional, organism-based.

As to `COC(=O)[C@H](Cc1ccccc1)NC(=O)[C@]12CC[C@@H](C)[C@H](C)[C@H]1C1=CC[C@@H]3[C@@]4(C)C[C@@H](O)[C@H](O)C(C)(C)[C@@H]4CC[C@@]3(C)[C@]1(C)CC2`, in the data set with HepG2 [1], the inhibition result is “Active”. Further, in data set [2], the viability at 24 h, 80 µM is more than 80%.

Take `CC(=O)O[C@@H]1C[C@]2(C)[C@H]3CC=C4[C@@H]5[C@@H](C)[C@H](C)CC[C@]5(C(=O)O)CC[C@@]4(C)[C@]3(C)CC[C@H]2C(C)(C)[C@H]1OC(C)=O`: the viability at 24 h, 80 µM in data set [2] was 58.7%.

For `COC(=O)C(Cc1ccc(OC)cc1)NC(=O)[C@]12CC[C@@H](C)[C@H](C)[C@H]1C1=CC[C@@H]3[C@@]4(C)C[C@@H](O)[C@H](O)C(C)(C)[C@@H]4CC[C@@]3(C)[C@]1(C)CC2` (stereo not given in full), the inhibition entry in the data set on HepG2 [1] was “Active”. Further, the viability at 24 h, 80 µM in data set [2] is more than 80%.

Consider `CCOC(=O)CNC(=O)[C@]12CC[C@@H](C)[C@H](C)[C@H]1C1=CC[C@@H]3[C@@]4(C)C[C@@H](O)[C@H](O)C(C)(C)[C@@H]4CC[C@@]3(C)[C@]1(C)CC2`, for which the viability at 24 h, 80 µM in data set [2] was more than 80%.

Turning to `CCOC(=O)[C@H](C)NC(=O)[C@]12CC[C@@H](C)[C@H](C)[C@H]1C1=CC[C@@H]3[C@@]4(C)C[C@@H](OC(C)=O)[C@H](OC(C)=O)C(C)(C)[C@@H]4CC[C@@]3(C)[C@]1(C)CC2`, in the data set with HepG2 [3], the inhibition at 20 µM is 63.1%. Besides, the inhibition entry in the data set on HepG2 [1] was “Active”. Moreover, the viability at 24 h, 80 µM in data set [2] was more than 80%.

`C[C@H]1[C@H](C)CC[C@]2(C(=O)NCCCCCC(=O)O)CC[C@]3(C)C(=CC[C@@H]4[C@@]5(C)C[C@@H](O)[C@H](O)C(C)(C)[C@@H]5CC[C@]43C)[C@H]12`: the Activity entry in the data set with HepG2 [4] is “Non-toxic”.

For the compound `C[C@H]1[C@H](C)CC[C@]2(C(=O)On3nnc4ccccc43)CC[C@]3(C)C(=CC[C@@H]4[C@@]5(C)C[C@@H](O)[C@H](O)C(C)(C)[C@@H]5CC[C@]43C)[C@H]12`, in data set [2], the viability at 24 h, 80 µM is more than 80%.

Consider `C[C@H]1[C@H](C)CC[C@]2(C(=O)NCCCN)CC[C@]3(C)C(=CC[C@@H]4[C@@]5(C)C[C@@H](O)[C@H](O)C(C)(C)[C@@H]5CC[C@]43C)[C@H]12`, for which the viability at 24 h, 80 µM in data set [2] was more than 80%.

For `C[C@H]1[C@H](C)CC[C@]2(C(=O)NCCCNC(=O)c3ccccc3)CC[C@]3(C)C(=CC[C@@H]4[C@@]5(C)C[C@@H](O)[C@H](O)C(C)(C)[C@@H]5CC[C@]43C)[C@H]12`, the viability at 24 h, 80 µM in data set [2] is more than 80%.

On to `C[C@H]1[C@H](C)CC[C@]2(C(=O)NC(=O)NC3CC3)CC[C@]3(C)C(=CC[C@@H]4[C@@]5(C)C[C@@H](O)[C@H](O)C(C)(C)[C@@H]5CC[C@]43C)[C@H]12`, for which the inhibition result in the data set on HepG2 [1] was “Active”. In data set [2], the viability at 24 h, 80 µM is more than 80%.

Take `C[C@H]1[C@H](C)CC[C@]2(C(=O)O[C@H]3O[C@H](CO)C(O)[C@@H](O)[C@H]3O)CC[C@]3(C)C(=CC[C@@H]4[C@@]5(C)C[C@@H](O)[C@H](O)C(C)(C)[C@@H]5CC[C@]43C)[C@H]12` (single isomer, unassigned): in data set [2], the viability at 24 h, 80 µM stood at 64.5%.

For `CCCCC(=O)NCCCNC(=O)[C@]12CC[C@@H](C)[C@H](C)[C@H]1C1=CC[C@@H]3[C@@]4(C)C[C@@H](O)[C@H](O)C(C)(C)[C@@H]4CC[C@@]3(C)[C@]1(C)CC2`, the inhibition entry in the data set on HepG2 [1] was “Active”. The viability at 24 h, 80 µM in data set [2] is more than 80%.

As for `CN(C)C(=N)NC(=N)N`, the outcome in the data set on Mus musculus was Active.

With `COC(=O)CCCCNC(=O)[C@]12CC[C@@H](C)[C@H](C)[C@H]1C1=CC[C@@H]3[C@@]4(C)C[C@@H](O)[C@H](O)C(C)(C)[C@@H]4CC[C@@]3(C)[C@]1(C)CC2`, the inhibition result in the data set with HepG2 [1] is “Active”. In addition, in data set [2], the viability at 24 h, 80 µM was more than 80%.

For the compound `CC(=O)O[C@H]1CC[C@]2(C)[C@H]3CC=C4[C@@H]5[C@@H](C)[C@H](C)CC[C@]5(C(=O)OCc5ccccc5)CC[C@@]4(C)[C@]3(C)CC[C@H]2C1(C)C`, in the data set with HepG2 [3], the inhibition at 20 µM came out at 58.5%. The viability at 24 h, 80 µM in data set [2] is more than 80%.

Consider `C[C@H]1[C@H](C)CC[C@]2(C(=O)OCc3ccccc3)CC[C@]3(C)C(=CC[C@@H]4[C@@]5(C)CCC(=O)C(C)(C)[C@@H]5CC[C@]43C)[C@H]12`, for which the viability at 24 h, 80 µM in data set [2] was more than 80%.

As for `CCOC(=O)[C@H](CS)NC(=O)[C@]12CC[C@@H](C)[C@H](C)[C@H]1C1=CC[C@@H]3[C@@]4(C)C[C@@H](O)[C@H](O)C(C)(C)[C@@H]4CC[C@@]3(C)[C@]1(C)CC2`, in the data set with HepG2 [1], the inhibition entry is “Active”. Further, the viability at 24 h, 80 µM in data set [2] is more than 80%.

For `C[C@H]1[C@H](C)CC[C@]2(C(=O)OCc3ccccc3)CC[C@]3(C)C(=CC[C@@H]4[C@@]5(C)CC[C@H](O)C(C)(C)[C@@H]5CC[C@]43C)[C@H]12`, the inhibition result with HepG2 [1] is “Active”. The viability at 24 h, 80 µM in data set [2] is more than 80%.

In the case of `C[C@H]1[C@H](C)CC[C@]2(C(=O)O)CC[C@]3(C)C(=CC[C@@H]4[C@@]5(C)CC[C@H](O)C(C)(C)[C@@H]5CC[C@]43C)[C@H]12` [URSOLIC ACID], the viability at 24 h, 80 µM in data set [2] turned out to be 7.85%.

For `CC(=O)O[C@@H]1C[C@]2(C)[C@H]3CC=C4[C@@H]5[C@@H](C)[C@H](C)CC[C@]5(C(=O)NCCCN)CC[C@@]4(C)[C@]3(C)CC[C@H]2C(C)(C)[C@H]1OC(C)=O`, the inhibition entry in the data set on HepG2 [1] is “Active”. In data set [2], the viability at 24 h, 80 µM came to 8.9%.

For the compound `CC(=O)OC[C@H]1O[C@H](OC(=O)[C@]23CC[C@@H](C)[C@H](C)[C@H]2C2=CC[C@@H]4[C@@]5(C)C[C@@H](O)[C@H](O)C(C)(C)[C@@H]5CC[C@@]4(C)[C@]2(C)CC3)C(OC(C)=O)[C@H](OC(C)=O)C1OC(C)=O` (single isomer, unassigned), in the data set with HepG2 [1], the inhibition result was “Active”. Further, the viability at 24 h, 80 µM in data set [2] is more than 80%.

As to `C[C@H]1[C@H](C)CC[C@]2(C(=O)OCc3ccccc3)CC[C@]3(C)C(=CC[C@@H]4[C@@]5(C)C[C@@H](O)[C@H](O)C(C)(C)[C@@H]5CC[C@]43C)[C@H]12`, the viability at 24 h, 80 µM in data set [2] came out at 12.3%.

In the case of `CCOC(=O)[C@H](CC(C)C)NC(=O)[C@]12CC[C@@H](C)[C@H](C)[C@H]1C1=CC[C@@H]3[C@@]4(C)C[C@@H](O)[C@H](O)C(C)(C)[C@@H]4CC[C@@]3(C)[C@]1(C)CC2`, the inhibition result with HepG2 [1] is “Active”. For the same compound, the viability at 24 h, 80 µM in data set [2] was more than 80%.

`CCOC(=O)[C@H](CO)NC(=O)[C@]12CC[C@@H](C)[C@H](C)[C@H]1C1=CC[C@@H]3[C@@]4(C)C[C@@H](O)[C@H](O)C(C)(C)[C@@H]4CC[C@@]3(C)[C@]1(C)CC2`: in the data set on HepG2 [1], the inhibition entry was “Active”. In addition, the viability at 24 h, 80 µM in data set [2] was more than 80%.

As to `CC(=O)O[C@@H]1C[C@]2(C)[C@H]3CC=C4[C@@H]5[C@@H](C)[C@H](C)CC[C@]5(C(=O)NCCCNC(=O)OCC5c6ccccc6-c6ccccc65)CC[C@@]4(C)[C@]3(C)CC[C@H]2C(C)(C)[C@H]1OC(C)=O`, the viability at 24 h, 80 µM in data set [2] is more than 80%.

In the case of `CCOC(=O)[C@H](C)NC(=O)[C@]12CC[C@@H](C)[C@H](C)[C@H]1C1=CC[C@@H]3[C@@]4(C)C[C@@H](O)[C@H](O)C(C)(C)[C@@H]4CC[C@@]3(C)[C@]1(C)CC2`, the viability at 24 h, 80 µM in data set [2] is more than 80%.
